Results published in paper PMC3057995, “Potent Anti-Tumor Effect Generated by a Novel Human Papillomavirus (HPV) Antagonist Peptide Reactivating the pRb/E2F Pathway” (PLoS ONE, 2011).

Tests used:
[1] = test system: HPV16E7/pRb interaction; experiment: Co-IP of HPV16 E7 and pRb in Cos7 cells; format: cell-based; conditions: Cos7 co-transfected, 80 µM Pep-7
Description: For Co-IP, Cos-7 cells seeded in 100 mm plates were co-transfected with HPV16E7-pEYFP-N1 and pRb-pcDNA3.1 using the PEI reagent (Sigma-aldich Chemie GmbH, Steinheim, Germany) described previously. […] Lysate supernate prepared as above were incubated with 10 µl rabbit anti-pRb antibody or mouse anti-flag (negative control) antibody and washed protein G agarose beads (Amersham Biosciences, Little Chalfont, UK) overnight at 4°C under continuous agitation. Beads were subsequently washed four times with the lysis buffer. Bound proteins were eluted by boiling in a Laemmli sample buffer and subjected to western blot assay.

[2] = test system: mutated cyclin A and E1 promoters; experiment: Luciferase reporter assay, E2F-site-mutated promoters (pMCCNA-Luc, pMCCNE1-Luc), SiHa; format: cell-based; conditions: 80 µM, 24 h, E2F binding sites mutated
Description: HPV16E7-pEYFP plasmid was constructed by sub-cloning the HPV16E7 gene into the EcoRI and BamHI sites of pEYFP-N1. The HPV16E7 gene was obtained by PCR from HPV16E7- pET28a (+) plasmid, which was maintained by our laboratory, using primers pE7N1f and pE7N1b. The pRb gene was obtained by nest PCR from HeLa cDNA using pRb1, pRb2, pRb3, pRb4 as primers. The PCR product was then inserted into the HindIII and Xho I sites of pcDNA3.1-His/V5-Topo. pA3-Luc-Cyclin D1 luciferase reporter plasmid containing the cyclin D1 promoter sequence −1745 to +134 was maintained by our laboratory. Both pCCNE1-Luc and pCCNA1-Luc were constructed by nest PCR to amplify fragments of cyclins E1 and A promoter sequences (cyclin E1: +3 to +594; cyclin A: −284 to +254) which include E2F binding sites, [47] from HeLa cDNA, respectively. Primers used in pCCNE1-Luc construction were P(CCE1), P(CCE2), P(CCE3), and P(CCE4), while primers P(CCA1), P(CCA2), P(CCA3), and P(CCA4) were used in PCCNA1-Luc construction. The PCR products were then cloned into the Kpn1 and Bgl II sites of the pGL3-enhancer (Promega, Madison, WI, USA) luciferase reporter plasmid. […]
The reporter assays were performed using Bright-Glo™ Luciferase Assay System (Promega, Madison, WI, USA) according to the manufacturer's instructions. […] Each sample was determined in triplicate. […]

[3] = test system: SiHa cells; experiment: Clonogenic assay, SiHa; format: cell-based; conditions: 14 days
Description: (§1) Cells were seeded in DMEM at 1×10^3 cells/well density in 12-well plates and allowed to attach to the substrate overnight. Thereafter, cells were treated with 0 µM, 16 µM, 32 µM, 80 µM, and 160 µM peptide in DMEM, and the medium was changed every three days. The plates were observed daily for colony formation. After 8 (for HeLa cells) or 14 (for SiHa and CaSki cells) days of treatment, the cultures were washed three times with PBS and stained with crystal violet in ethanol for 15 min. The colonies were then counted and photographed with the Alphalmager® EP image acquisition system (Alpha Innotech, Santa Clara, CA, USA).

[4] = test system: COS7; experiment: MTT cell viability assay, Cos7; format: cell-based, African green monkey; conditions: Cos7, HPV-negative; data not shown
Description: (§2) HPV16-positive SiHa and CaSki cervical carcinoma cells were supplied by China Center for Type Culture Collection (CCTCC). The following cell lines used in this project were from our laboratory: HPV18-positive HeLa cervical carcinoma cells, CNE nasopharyngeal carcinoma cells, HaCat human keratinocyte cells, COS7 (African green monkey SV40-transformed kidney fibroblast cell line), 293T (human kidney epithelial cells), and NIH/3T3 mouse embryonic fibroblast cells. All cells were maintained in a humidified atmosphere of 5% CO2, Dulbecco's modified Eagle's medium (DMEM, pH 7.2), supplemented with 10% fetal calf serum (FCS).
(§3) Cell viability was determined with an MTT assay. Briefly, the cells were seeded into 96-well plates at a density of 4–5×10^3 cells/well. The cells were allowed to recover for 24 h before the medium was replaced with DMEM supplemented with peptides at different concentrations. The solvent of the peptides was set as the control. The peptide-supplemented medium was replaced daily and the respective concentrations were maintained. The cells were subjected to an MTT cell proliferation assay at different time points. The plates were incubated at 37°C for 3 h with the addition of 20 µl/well MTT (5 mg/ml). Untransformed MTT in the solution was removed by aspiration. […] The optical density of the formazan solutions was measured by microplate reader at 540 nm.

[5] = test system: HeLa cells; experiment: Clonogenic assay, HeLa; format: cell-based; conditions: 16 through 160 µM, 8 days, p>0.1
Description: as §1

[6] = test system: HaCat human keratinocyte cells; experiment: MTT cell viability assay, HaCat; format: cell-based; conditions: HPV-negative, data not shown
Description: as §2, §3

[7] = test system: pRb; experiment: pRb half-life measurement (cycloheximide, Western blot); format: cell-based; conditions: SiHa, 80 µM Pep-7 24 h, then 50 µg/ml cycloheximide 0 to 12 h; three experiments
Description: Measurements of pRb half-life were carried out.
The cells were then treated with 50 µg/ml cycloheximide for 0 to 12 h. The cell lysates collected at different time points were subjected to Western blotting assay as above. Band intensity was used to determine the proteins half-life.

[8] = test system: cyclin A, E1 and D1 promoters containing E2F binding sites; experiment: Luciferase reporter assay, CaSki; format: cell-based; conditions: 80 µM, 24 h, means ± SE, three experiments
Description: The reporter assays were performed using Bright-Glo™ Luciferase Assay System (Promega, Madison, WI, USA) according to the manufacturer's instructions. Briefly, cells were plated in 12-well plates at a density of 1.5×10^5 cells/well. The following day, cells were transfected with reporter constructs. […] Thereafter, cell lysates were collected for reporter assays. The luciferase reporter activity of each sample was normalized against the corresponding protein content prior to calculation of the fold induction value relative to the controls. Each sample was determined in triplicate. The results represent means ± SE from three experiment runs.

Sequence: SACPKGLDWCGG (C&C bridged by disulfide bonds) (disulfide) [Pep-7]
- co-immunoprecipitation of HPV16E7 with pRb [1]: HPV16E7 could not be immunoprecipitated by the pRb antibodies
- activities of mutated promoters (pMCCNA-Luc, pMCCNE1-Luc) [2]: negligible differences from those in control groups
- colony formation ([3]; 16-160 µM): inhibited
- concentration up to which colony number difference vs control became significant (p<0.02) ([3]; vs 0 µM group, three independent experiments): 32 µM
- cell proliferation (MTT) [4]: negligible effect
- colony formation [5]: not influenced
- cell proliferation (MTT) [6]: negligible effect
- pRb half-life [7]: significantly expanded
- activities of cyclin A, E1 and D1 promoters [8]: remarkable down-regulation
